Experiments:
CCR5 mRNA = CCR5 mRNA expression in MDM (RT-PCR); assay type: cell-based, human; settings: for relative CCR5 mRNA level (real-time RT-PCR): CP-96,345 10^−7 to 10^−6 M or R-113281 10^−8 to 10^−6 M, 4 hours (FIG. 15A)
Description: Total RNA was isolated from human peripheral blood MDM (10^6 cells) using Tri-Reagent (Molecular Research Center, Cincinnati, Ohio) as we previously reported (16).
Reverse transcription: Total RNA (1 μg) was reverse transcribed using Reverse Transcription System (Promega, Madison, Wis.) with the specific primers (antisense) for HIV gag (5′-[…]-[…]-3′; SEQ ID NO: 1) (27) or CCR5 (5′-[…]-3′; SEQ ID NO: 2) (32) for 1 h at 42° C. RT reactions was terminated by incubating the reaction mixture at 99° C. for 5 min and then kept at 4° C. The resulting cDNA was used as a template for PCR amplification or real time PCR quantification.
Polymerase chain reaction (PCR) analysis: PCR amplification of CCR5 and HIV gag cDNA was performed with one tenth of the cDNA for 35 cycles (CCR5) (32) or 40 cycles (gag) (27) using AmpliTaq Gold (Perkin Elmer-Cetus, Foster City, Calif.) in a GeneAmp PCR System 2400 (Perkin Elmer-Cetus). β-Actin was used as a control to monitor the amount and integrity of RNA in each sample (Clontech, Palo Alto, Calif.). Real time PCR was performed with one tenth of cDNA using ABI Prism 7700 Sequence Detection System (Perkin Elmer). The reaction mixture contained 0.25 mM of dNTPs, AmpliTaq Gold (1.5 U), 5 mM of MgCl2, 50 pmole of each of the two primers (SK38: 5′-[…]-3′ (SEQ ID NO: 3); SK39: 5+-[…]-3′; SEQ ID NO: 4), 20 pmole of the molecular beacon probe (SK19: 5′-[…]-3′; SEQ ID NO: 5) labeled with FAM (a fluorophore) at its 5′ end and DABCYL (a quencher) at the 3′ end. The cycle conditions were 95° C. 10 min followed by 40 cycles of 95° C. 15 sec and 60° C. 1 min. The known amounts of HIV DNA isolated from ACH-2 cells were used as standard controls. All standards and samples were run in duplicates. HIV gag, CCR5, β-Actin primer pairs and the probe (SK19) were synthesized by Integrated DNA Technologies, Inc. (Coralville, Iowa).

ADA Env-pseudotyped HIV = test: Pseudotype reporter virus entry assay, ADA Env; assay type: cell-based
Description: (§1) Pseudotype reporter virus entry assay: Recombinant luciferase-encoding HIV virions pseudotyped with Env from the M-tropic ADA (CCR5-dependent) and amphitropic murine leukemia virus (MLV) (CCR5-independent) were used to study HIV infection of MDM incubated with or without CP-96,345 or R-113281. The Env-deleted luciferase reporter plasmid PNL-Luc-E-R+ (kindly provided by N. Landau) was cotransfected into 293T cells along with plasmids encoding the ADA or MLV Env genes as previously described (31). Supernatants were collected 48 h later, assayed for p24^Gag antigen content, and frozen at −80° C. MDM (2.5×10^5 cells/well, in 48-well plates) were incubated overnight with or without CP-96,345 or R-113281 and then infected using 20 ng of p24^Gag antigen equivalent of each pseudotype HIV per well, in the presence of polybrene (7.5 μg/ml). At 72 h postinfection, the cells were lysed in 150 μl of 0.5% Triton-X-100 in PBS. Lysate (50 μl) was mixed with an equal volume of luciferase substrate (Promega, […].) and luciferase activity was determined in a microtiter plate luminometer (Dynex Technologies, Chantilly, Va.). The results were expressed as relative light units (RLU) in CP-96,345-treated or R-113281-treated and infected MDM as a percentage of that in untreated and infected MDM.

MLV Env-pseudotyped HIV = test: Pseudotype reporter virus entry assay, MLV Env; assay type: cell-based, murine leukemia virus
Description: as §1

CCR5 = test: Macrophage receptor expression by flow cytometry; assay type: cell-based, human
Description: The cells were removed from the culture plate and then resuspended in 100 μl of phosphate-buffered saline (PBS). After incubation with 20 μl of either anti-CCR5-FITC or anti-CXCR4-FITC or anti-CD4-FITC or anti-CD14-FITC for 45 min at 4° C., the cells were washed twice with PBS and fixed with 1% paraformaldehyde in PBS. Fluorescein-conjugated control antibodies were isotype-matched IgG. Fluorescence was analyzed on an EPICS-Elite flow cytometer (Beckman-Coulter Electronics, Hialeah, Fla.).

R5X4 strain (89.6) = test: HIV RT activity in MDM infected with R5X4 strain; assay type: cell-based
Description: Based upon their differential use of the major HIV co-receptors, HIV isolates have been referred to as R5, X4 or R5X4 strains, respectively (29). The M-tropic (macrophage-tropic) R5 prototype strains (Bal and ADA), dual tropic strain (89.6) and X4 primary isolate (UG024), were obtained from the NIH AIDS Reagent Program. Primary M-tropic isolates (BL-6 and CSF-6) were isolated from the blood and cerebrospinal fluid cells, respectively, of a subject with AIDS.
The cells were also incubated with SP and/or anti-SP antibody. In this case, SP was incubated with (1:1000 dilution in 10% FCS DMEM) or without anti-SP antibody at room temperature for 10 min and then the mixture was added to the cell cultures for 2 h. When the cells were treated with the combination of CP-96,345 and SP, or CP-96,345, SP and anti-SP antibody, CP-96,345 was incubated with the cell culture for 10 min and then SP was added to the MDM or CP-96,345, SP and anti-SP (1:1000 in 10% FCS DMEM) were incubated for 10 min at room temperature and the mixture was incubated with the MDM for 2 h before infection with HIV. Untreated MDM served as controls. The cells were treated prior to, during, and throughout the infection. […]

[1] = CP-96,345 10^−8 and 10^−7M overnight (FIG. 10)
[2] = R-113281 10^−7 and 10^−6 overnight (FIG. 13)

Compound | CCR5 mRNA in MDM (RT-PCR) (CCR5 mRNA; 10^−8 to 10^−6M, 3 h (FIG. 9)) | relative CCR5 mRNA level (real-time RT-PCR) (CCR5 mRNA) | M-tropic ADA Env-pseudotyped HIV infection of MDM (luciferase activity) (ADA Env-pseudotyped HIV; [1]) | MLV Env-pseudotyped HIV infection of MDM (luciferase activity) (MLV Env-pseudotyped HIV; [1]) | CCR5 receptor expression on MDM (percentage positive cells) (CCR5; overnight/24 h, among CD4, CCR5, CXCR4 and CD14 only CCR5 changed (FIG. 8)) | replication of R5X4 strain 89.6 (RT activity) (R5X4 strain (89.6); CP-96,345 10^−7M, 8 days after infection (FIG. 6)) | M-tropic ADA Env-pseudotyped HIV infection of MDM (luciferase activity) (ADA Env-pseudotyped HIV; [2]) | MLV-Env pseudotyped HIV infection of MDM (luciferase activity) (MLV Env-pseudotyped HIV; [2]) | CCR5 protein expression (percentage CCR5 positive cells, flow cytometry) (CCR5; R-113281 10^−6M, 24 hours (FIG. 15B)) | replication of R5X4 strain (RT activity) (R5X4 strain (89.6); R-113281 10^−6 M, 8 days after infection (FIG. 14))
COc1ccccc1CN[C@H]1C2CCN(CC2)[C@H]1C(c1ccccc1)c1ccccc1 [CP-96,345, 2S, 3S)-cis-2-(diphenylmethyl)-N-[(2-methoxyphenyl)-methyl]-1-azabicyclo[[2.2.2]octan-3-amine] | down-regulated | significantly down-regulated | inhibited | failed to block | down-regulated | inhibited to a lesser extent | – | – | – | –
COc1cc(C(=O)N2CCO[C@](CCN3CCC4(CC3)c3ccccc3C[S@+]4[O-])(c3ccc(Cl)c(Cl)c3)C2)cc(OC)c1OC.Cl [R-113281] | – | significantly down-regulated | – | – | – | – | inhibited | failed to block | inhibited | inhibited to a lesser extent

— patent US20020094524A1, “Compositions and methods for inhibiting HIV infection” (priority 2000, published 2002)
